Experiments:
HCT116 cells = experiment: Whole cell cytotoxicity assay: Sulforhodamine B; assay type: cell-based; conditions: Homo sapiens, HCT-116; 100 μM compound; 48 hours incubation with drug; Sulforhodamine B staining; read-out: % Inhibition of HCT116 cell growth @ 100 μM
Protocol: [The source words this procedure for another cell line and reports this cell line under the same test.] The following procedure can be found on the Developmental Therapeutics Program NCl/NIH web site at http://dtp.nci.nih.gov/brancehes/btb/ivclsp.html. • 1. Human tumor cell lines of HT29, A549 and MCF7 are grown in DMEM containing 10% fetal bovine serum and 2 mM L-glutamine. Cells are plated in a 96 well plate at a density of 5000 cells per well in 100 μL of growth medium and incubated at 37° C., 5% CO2, for 24 hours prior to the addition of experimental compounds. • 2. Experimental drugs are solubilized in DMSO for a final concentration of 20 mM immediately prior to use. Drugs are further diluted in growth media for a total of nine drug concentrations and a growth control. At the 24 hour time point, one plate of cells is fixed in situ with TCA as a measurement of the cell population at time zero, or the time of drug addition. • 3. The plates are further incubated with drug for an additional 48 hours. • 4. The cells are fixed in situ by gently aspirating off the culture media and then adding 50 μL of ice cold 10% TCA per well and incubated at 4° C. for 60 minutes. The plates are washed with tap water five times and allowed to air dry for 5 minute. • 5. 50 μL of a 0.4% (w/v) Sulforhodamine B solution in 1% (v/v) acetic acid is added per well and incubated for 30 minutes at room temperature. • 6. Following staining, plates are washed five times with 1% acetic acid to remove any unbound dye and then allowed to air dry for 5 minutes. • 7. Stain is solubilized with 100 μL of 10 mM Tris pH 10.5 per well and placed on an orbital rotator for 5 minutes. • 8. Absorbance is read at 570 nm.

HDAC = experiment: In vitro fluorescent histone deacetylase assay (Biomol HDAC fluorescent activity kit, HeLa cell nuclear extract); assay type: biochemical; conditions: 100 μM compound; HeLa cell nuclear extract as source of HDAC activity; 50 μM substrate, 10 min at room temperature
Protocol: Histone deacetylase (HDAC) activity assays were performed using the HDAC fluorescent activity assay/drug discovery kit (Biomol Research Laboratories, Plymouth Meeting, Pa.) essentially according to the manufacturer's instructions. The included HeLa cell nuclear extract, which contains a mosaic of HDAC enzymes and other nuclear factors, was used as the source of HDAC activity. The final substrate concentration in the assay mixture was 50 μM. The reaction was allowed to proceed for 10 min at room temperature before stopping the reaction. Test compounds were prepared as 20 mM stock solutions in DMSO (Molecular Biology grade, Sigma-Aldrich Co., St. Louis, Mo.) and stored at −70° C. Serial dilutions of test compounds were prepared in assay buffer immediately prior to testing. DMSO was determined in a separate trial to have no significant effect on the activity of this assay at concentrations up to 5%; the final DMSO concentration in the wells was no more than 2% and therefore DMSO effects were safely neglected. Assays were performed in white polystyrene 96-well half-area assay plates (Corning, Corning, N.Y.) and measured on a Wallace 1420 fluorescent plate reader (Wallac Oy, Turku, Finland) with an excitation wavelength of 355 nm, an emission wavelength of 460 nm, and a 1 sec signal averaging time.

SMILES	inhibition at 100 µM (HCT116 cells) [%]	% Inhibition of HDAC @ 100 μM (HDAC) [%]
Nc1cccc(-c2ccc3[nH]c4c(c3c2)CN(c2ncc(C(=O)NO)cn2)CC4)c1 [Example 86, N-hydroxy-2-{8-[3-aminophenyl]-1,3,4,5-tetrahydro-2H-pyrido[4,3-b]indol-2-yl}pyrimidine-5-carboxamide]	99.1	100
O=C(/C=C/c1cnc(N2CCc3c([nH]c4ccccc34)C2)nc1)NO [Example 20, (2E)-N-hydroxy-3-[2-(1,3,4,9-tetrahydro-2H-b-carbolin-2-yl)pyrimidin-5-yl]acrylamide]	98.2	99.6
Nc1ccc2[nH]c3c(c2c1)CN(c1ncc(C(=O)NO)cn1)CC3 [Example 76, N-hydroxy-2-(8-amino-1,3,4,5-tetrahydro-2H-pyrido[4,3-b]indol-2-yl)pyrimidine-5-carboxamide]	98.9	100
O=C(NO)c1cnc(N2CCc3[nH]c4ccc(-c5cccc(CO)c5)cc4c3C2)nc1 [Example 43, N-hydroxy-2-{8-[3-(hydroxymethyl)phenyl]-1,3,4,5-tetrahydro-2H-pyrido[4,3-b]indol-2-yl}pyrimidine-5-carboxamide]	98.7	100
CN1CCN(Cc2ccccc2-c2ccc3[nH]c4c(c3c2)CCN(c2ncc(C(=O)NO)cn2)C4)CC1 [Example 73, N-hydroxy-2-{6-[2-((4-methylpiperazin-1-yl)methyl)phenyl]-1,3,4,9-tetrahydro-2H-b-carbolin-2-yl}pyrimidine-5-carboxamide]	99.4	99.6
O=C(NO)c1cnc(N2CCc3c([nH]c4ccc(-c5cccc(CN6CCOCC6)c5)cc34)C2)nc1 [Example 70, N-hydroxy-2-{6-[3-(morpholin-4-ylmethyl)phenyl]-1,3,4,9-tetrahydro-2H-b-carbolin-2-yl}pyrimidine-5-carboxamide]	97.9	99.9
CC(=O)Nc1cccc(-c2ccc3[nH]c4c(c3c2)CN(c2ncc(C(=O)NO)cn2)CC4)c1 [Example 87, N-hydroxy-2-{8-[3-(N-acetamido)phenyl]-1,3,4,5-tetrahydro-2H-pyrido[4,3-b]indol-2-yl}pyrimidine-5-carboxamide]	83.1	100
O=C(NO)c1cnc(N2CCc3c(n(CCN4CCCCC4)c4ccccc34)C2)nc1 [Example 24, N-hydroxy-2-[9-(2-piperidin-1-ylethyl)-1,3,4,9-tetrahydro-2H-b-carbolin-2-yl]pyrimidine-5-carboxamide]	98.9	99
COc1ccc(-c2ccc3[nH]c4c(c3c2)CN(c2ncc(C(=O)NO)cn2)CC4)cc1 [Example 40, N-hydroxy-2-{8-[4-methoxyphenyl]-1,3,4,5-tetrahydro-2H-pyrido[4,3-b]indol-2-yl}pyrimidine-5-carboxamide]	98.3	99.8
O=C(NO)c1cnc(N2CCc3[nH]c4ccc(-c5cccs5)cc4c3C2)nc1 [Example 60, N-hydroxy-2-{8-[thien-2-yl]-1,3,4,5-tetrahydro-2H-pyrido[4,3-b]indol-2-yl}pyrimidine-5-carboxamide]	99	100
O=C(NO)c1cnc(N2CCc3[nH]c4ccc(-c5cccc(CN6CCC(CO)CC6)c5)cc4c3C2)nc1 [Example 93, N-hydroxy-2-{8-[3-((4-hydroxymethylpiperidin-1-yl)methyl)phenyl]-1,3,4,5-tetrahydro-2H-pyrido[4,3-b]indol-2-yl}pyrimidine-5-carboxamide]	98	100
O=C(NO)c1cnc(N2CCc3c([nH]c4ccccc34)C2)s1 [Example 19, N-hydroxy-2-(1,3,4,9-tetrahydro-2H-b-carbolin-2-yl)-1,3-thiazole-5-carboxamide]	97.2	97.6
O=C(NO)c1cnc(N2CCc3[nH]c4ccccc4c3C2)nc1 [Example 12, N-hydroxy-2-(1,3,4,5-tetrahydro-2H-pyrido[4,3-b]indol-2-yl)pyrimidine-5-carboxamide]	98.7	99.9
CN1CCN(Cc2cccc(-c3ccc4[nH]c5c(c4c3)CN(c3ncc(C(=O)NO)cn3)CC5)c2)CC1 [Example 96, N-hydroxy-2-{8-[3-((4-methylpiperazin-1-yl)methyl)phenyl]-1,3,4,5-tetrahydro-2H-pyrido[4,3-b]indol-2-yl}pyrimidine-5-carboxamide]	98.7	100
CS(=O)(=O)N1CCN(Cc2cccc(-c3ccc4[nH]c5c(c4c3)CN(c3ncc(C(=O)NO)cn3)CC5)c2)CC1 [Example 100, N-hydroxy-2-{8-[3-((4-(methylsulfonyl)piperazin-1-yl)methyl)phenyl]-1,3,4,5-tetrahydro-2H-pyrido[4,3-b]indol-2-yl}pyrimidine-5-carboxamide]	96.6	100
CC(=O)N1CCN(Cc2cccc(-c3ccc4[nH]c5c(c4c3)CN(c3ncc(C(=O)NO)cn3)CC5)c2)CC1 [Example 101, N-hydroxy-2-{8-[3-((4-acetylpiperazin-1-yl)methyl)phenyl]-1,3,4,5-tetrahydro-2H-pyrido[4,3-b]indol-2-yl}pyrimidine-5-carboxamide]	97.9	100
O=C(NO)c1cnc(N2CCc3[nH]c4ccc(-c5ccco5)cc4c3C2)nc1 [Example 46, N-hydroxy-2-{8-(fur-2-yl)-1,3,4,5-tetrahydro-2H-pyrido[4,3-b]indol-2-yl}pyrimidine-5-carboxamide]	98.6	99.8
C[S+]([O-])c1cccc(-c2ccc3[nH]c4c(c3c2)CN(c2ncc(C(=O)NO)cn2)CC4)c1 (stereo not drawn) [Example 79, N-hydroxy-2-{8-[3-(methylsulfinyl)phenyl]-1,3,4,5-tetrahydro-2H-pyrido[4,3-b]indol-2-yl}pyrimidine-5-carboxamide]	95.7	100
O=C(NO)c1cnc(N2CCc3c(n(CN4CCCC4)c4ccccc34)C2)nc1 [Example 30, N-hydroxy-2-{9-[2-pyrrolidin-1-ylmethyl]-1,3,4,9-tetrahydro-2H-b-carbolin-2-yl}pyrimidine-5-carboxamide]	96.8	98.1
COc1cc2c(cc1OC)CN(c1ncc(C(=O)NO)cn1)CC2 [Example 11, 2-(6,7-dimethoxy-3,4-dihydroisoquinolin-2(1H)-yl)-N-hydroxypyrimidine-5-carboxamide]	99	99.8
O=C(NO)c1cnc(N2CCc3[nH]c4ccc(-c5cccc(-c6nnn[nH]6)c5)cc4c3C2)nc1 [Example 84, N-hydroxy-2-{8-[3-(1H-tetrazol-5-yl)phenyl]-1,3,4,5-tetrahydro-2H-pyrido[4,3-b]indol-2-yl}pyrimidine-5-carboxamide]	93.2	99.9
O=C(NO)c1cnc(N2CCc3c(n(S(=O)(=O)c4ccccc4)c4ccccc34)C2)nc1 [Example 26, N-hydroxy-2-[9-(phenylsulfonyl)-1,3,4,9-tetrahydro-2H-b-carbolin-2-yl]pyrimidine-5-carboxamide]	99	98.9
O=C(NO)c1cnc(N2CCc3[nH]c4ccc(-c5ccc(CN6CCOCC6)cc5)cc4c3C2)nc1 [Example 104, N-hydroxy-2-{8-[4-(morpholin-4-ylmethyl)phenyl]-1,3,4,5-tetrahydro-2H-pyrido[4,3-b]indol-2-yl}pyrimidine-5-carboxamide]	92	100
O=C(NO)c1cnc(N2CCc3c([nH]c4cc(F)ccc34)C2)nc1 [Example 62, N-hydroxy-2-(7-fluoro-1,3,4,9-tetrahydro-2H-b-carbolin-2-yl)pyrimidine-5-carboxamide]	96.2	99.9

Reference: US7772245B2, “Inhibitors of histone deacetylase” (Miikana Therapeutics, Inc., priority 2005, dated 2010)
